Calls of active or inactive are those of the source. No rule for the calls is given here.
Assay: E-selectin induction blockers, endothelial cells – imaging, retest plus dose response, cell count, confirmation (AID 1288);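 also: 0% = stimulated vehicle wells and 100% = unstimulated vehicle wells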
Conditions: human endothelial cells, TNFa-induced E-selectin, imaging; at 2 µM; stronger effect = higher value

| Compound | inhibition |
| --- | --- |
| COc1ccc(CCn2c(=S)[nH]c3cc(C(=O)NCc4ccco4)ccc3c2=O)cc1OC | 11% (inactive) |
| COCCn1c(SCC(=O)c2ccc(Cl)cc2)nnc1C(C)C | -5.2% (inactive) |
| CCOC(=O)N1CCc2c(sc3c2c(=O)n(Cc2ccccc2)c(=O)n3Cc2cccc(C)c2)C1 | 5.64% (inactive) |
| COc1ccc(CCNC(=O)C(=O)NCc2ccc(C)cc2)cc1OC | 8.92% (inactive) |
| O=C(CSc1ncccn1)NCc1ccccc1Cl | 32.9% (inactive) |
| Cc1ccc(Cc2cnc(NC(=O)/C(C#N)=C/c3ccc(-c4ccccc4[N+](=O)[O-])o3)s2)cc1 | 5.26% (inactive) |
| Cc1cccc(C(=O)NNC(=O)Nc2ccccc2)c1 | -2.06% (inactive) |
| Cc1ccc(/C=C/C(=O)C2C(=O)c3ccccc3C2=O)cc1 | 23.7% (inactive) |
| O=C1c2cccc(OCC(=O)N3CCCc4ccccc43)c2CCN1Cc1ccc(Br)cc1 | -5.27% (inactive) |
| Cc1c(Cl)cccc1N1C(=O)CC(N(O)c2ccccc2)C1=O (centres undefined) | 12.9% (inactive) |
| CN(Cc1ccccc1)C(=S)NC(=O)C1CCCCC1 | 8.28% (inactive) |
| CCCCN(C(=O)c1cc(OC)c(OC)c(OC)c1)C1=CC2CCC(C1)N2C (centres undefined) | 8.59% (inactive) |
| Cc1ccccc1Cn1ccc(NC(=O)c2cnn3c2NC(c2ccccc2)CC3C(F)(F)F)n1 (centres undefined) | 2.9% (inactive) |
| COc1cc(C2C(C#N)=C(N)Oc3c2oc(CO)cc3=O)cc(OC)c1OC (centres undefined) | 10.9% (inactive) |
| Cc1cc([N+](=O)[O-])nn1CCCC(=O)Nc1sc2c(c1C(N)=O)CCC(C)C2 (centres undefined) | 1.33% (inactive) |
| CN(C)S(=O)(=O)c1cc(NC(=O)CN2C(=O)NC3(CCCc4ccccc43)C2=O)ccc1Cl (centres undefined) | 4.67% (inactive) |
| COc1ccc(C(=O)C2(C)N(O)C(C)C(c3cccs3)=[N+]2[O-])cc1 (centres undefined) | 9.94% (inactive) |
| COc1ccc(C2C(C#N)=C(SCC(=O)Nc3ccc(C)cc3)NC3=C2C(=O)CC(C)(C)C3)cc1 (centres undefined) | 4.4% (inactive) |
| CCOC(=O)C1C(c2cc(OC)c(O)c(OC)c2)NC(=S)NC1(O)C(F)(F)F (centres undefined) | 7.39% (inactive) |
| CC(C)[C@H](NC(=O)CCn1nnc2ccccc2c1=O)C(=O)O | 4.34% (inactive) |
| O=C(Oc1ccccc1N1C(=O)C2CC=CCC2C1=O)c1ccc(Br)cc1 (centres undefined) | 5.75% (inactive) |
| Cc1ccc(C2(C)NC(=O)N(CCOc3ccccc3)C2=O)cc1 (centres undefined) | 3.16% (inactive) |
| Cc1noc(C)c1S(=O)(=O)Nc1ccc(C(=O)NC2CCCCC2C)cc1 (centres undefined) | 22.8% (inactive) |

| Compound | inhibition |
| --- | --- |
| CCOC(=O)N1CCC(N(CCOC)C(=O)Nc2ccc(Cl)cc2)CC1 | 2.12% (inactive) |
| COc1cccc(C(C(=O)NC(C)(C)C)N(C(=O)CCC(=O)Nc2cc(C)on2)C2CC2)c1OC (centres undefined) | 2.4% (inactive) |
| CC(=O)N[C@@H](Cc1c[nH]c2ccccc12)C(=O)OCC(=O)Nc1ccc(S(=O)(=O)N(C)C)cc1 | 7.84% (inactive) |
| O=C(Nc1cccc(-c2cn3ccccc3n2)c1)c1cccc(Cl)c1 | 8.96% (inactive) |
| COc1ccc(C2C(C(=O)Nc3cccnc3)=C(C)Nc3nc(-c4cccs4)nn32)cc1 (centres undefined) | 7.57% (inactive) |
| CCOc1ccc(-n2nc(C(=O)N3CCN(CC)CC3)c3ccccc3c2=O)cc1 | 18.4% (inactive) |
| Cc1ccc(Cn2ncc3c(N4CCN(C5CCCC5)CC4)ncnc32)cc1 | 3.96% (inactive) |
| COc1cc(S(=O)(=O)NC2CCCCC2C)ccc1Cl (centres undefined) | 9.69% (inactive) |
| Cc1cc(NCCN2CCCCC2)n2c(nc3ccccc32)c1C#N | 11.7% (inactive) |
| Cc1cc(C)cc(NC(=S)NC2CC3CCCC(C2)N3C2CC2)c1 (centres undefined) | 0.55% (inactive) |
| CCCc1c(O)c2ccccc2[nH]c1=O | 0.12% (inactive) |
| CCCC(=O)C1=C(O)C(C(=O)OC)C(C)(C)CC1=Nc1ccc(N)cc1 (centres undefined) | 10.6% (inactive) |
| COc1ccc(C(CC(=O)NCc2ccccc2)Sc2n[nH]c(-c3ccccc3)n2)cc1 (centres undefined) | 29.1% (inactive) |
| COc1cc(CNCc2ccco2)ccc1OCc1ccccc1 | 11.6% (inactive) |
| CCOc1ccc(NC(=O)COC(=O)C23CC4CC(CC(C4)C2)C3)c([N+](=O)[O-])c1 | 1.77% (inactive) |
| Cc1c(Cl)cnc(NC(=O)COC(=O)c2nn(C)c(=O)c3ccccc23)c1Cl | 12.5% (inactive) |
| CNC(=S)N=Nc1c(O)[nH]c2ccc(C(C)C)cc12 | 9.53% (inactive) |
| Clc1ccc(-c2nnc(-c3ccco3)o2)cc1 | 6.81% (inactive) |
| CCOc1ccc(NC(=O)C2CCC(N3C(=O)C4CC=CCC4C3=O)CC2)cc1 (centres undefined) | 2.62% (inactive) |
| Cc1cc(C(=O)Nc2nc3c(s2)CCCC3)no1 | 6.49% (inactive) |
| O=C(c1cccs1)N1CCN=C1SCc1ccccc1 | 9.69% (inactive) |
| O=C(CCn1c2c(c3ccccc31)CCCC2)NNC(=O)c1ccccc1[N+](=O)[O-] | 2% (inactive) |
| O=C(CN1CCN(Cc2ccccc2Cl)C1=O)NCc1ccco1 | 8.68% (inactive) |

| Compound | inhibition |
| --- | --- |
| CCC1Sc2ccccc2N(CC(=O)NCc2ccc3c(c2)OCO3)C1=O (centres undefined) | 9.94% (inactive) |
| CN(C)S(=O)(=O)c1ccc(NS(=O)(=O)/C=C/c2ccccc2)cc1 | 0.79% (inactive) |
| Cc1nn(-c2ccccc2)c(Cl)c1CN(C(=O)CCl)c1cccc2ccccc12 | 14.8% (inactive) |
| CCCCCC1NC(=O)NC1CCCCCC(=O)O (centres undefined) | 0.1% (inactive) |
| Cc1ccc2nc(-c3cccc(NC(=O)c4ccc5c(c4)OCCO5)c3)oc2c1 | 4.99% (inactive) |
| CCOC(=O)Cc1c(C)nc2c(-c3ccccc3)c[nH]n2c1=O | 0.71% (inactive) |
| CCN(CC)Cc1cc(C(C)=O)ccc1O | 3.73% (inactive) |
| Cc1cc(C(=O)CN2C(=O)NC(c3ccccc3)(c3ccccc3)C2=O)c(C)n1Cc1ccco1 | -3.9% (inactive) |
| CS(=O)(=O)N(CC(=O)NCCC1=CCCCC1)C1CCCCC1 | -0.77% (inactive) |
| CCCSc1nc(C)c(-c2csc(C(C#N)=C3CCCC3)n2)cc1C#N | 8.04% (inactive) |
| [O-][n+]1onc2c1C(N1CCOCC1)CCC2N1CCOCC1 (centres undefined) | 5.99% (inactive) |
| COc1ccc2c(c1)c1ncn(CCCN3CCOCC3)c(=O)c1n2C | 1.07% (inactive) |
| CCOC(=O)N1CCN(C(=O)COc2cccc3c2CCN(Cc2cccc(C)c2)C3=O)CC1 | 8.76% (inactive) |
| Cc1cc(OCC(=O)Nc2ccncc2)c(C)cc1Br | 3.41% (inactive) |
| COc1ccc(CCN(C)c2ccc(S(=O)(=O)N3CCCC3)cn2)cc1OC | 28.4% (inactive) |
| Cc1ccc(N)cc1S(=O)(=O)N(C)C | 7.3% (inactive) |
| O=C(NCCN1C(=O)CSC1=O)c1ccccc1 | 1.16% (inactive) |
| CN=C(C)C1=C(O)C(C(=O)OC)C(C)(C)CC1=O (centres undefined) | -0.09% (inactive) |
| CCN(CC)CCNC(=O)CS(=O)Cc1nc(-c2ccccc2Cl)oc1C (centres undefined) | 3.34% (inactive) |
| COc1ccccc1NC(=O)c1ccc(S(=O)(=O)N2CCCC2)cc1 | 3.22% (inactive) |
| CCOC(=O)c1cc2c(ccn2C)n1CC(=O)N1CCC(Cc2ccccc2)CC1 | 4.26% (inactive) |
| COc1ccc(Cl)cc1NC(=S)NCc1ccco1 | 2.52% (inactive) |
| Cc1ccc(/C([O-])=C(/C(=S)NCc2ccccc2)[n+]2cccc(CO)c2)cc1[N+](=O)[O-] | -5.81% (inactive) |

— PubChem BioAssay AID1288 (Columbia University Molecular Screening Center, 2008)
